From patent US20220096515A1, “Methods and Formulations for Preventing Neurological or Psychiatric Disorders” (Huntington Medical Research Institutes, priority 2020, published 2022) come the findings set out here.

The test system of assay [1] is periventricular endothelial cells isolated from E15 wildtype (CD1) forebrain. As to the kind of experiment: Endothelial cell proliferation in culture (confluency, BrdU labeling index). It is filed as cell-based, mouse. As to the method: (§1) Primary culture of endothelial cells and endothelial cell staining: Embryonic brains were dissected under a stereo-microscope, after the NAD^+ treatment paradigm and the telencephalon was removed. Pial membranes were peeled off. Telencephalon without pial membranes from the periventricular region was pooled. Purity of endothelial cell cultures was established with endothelial cell markers and determined to be one hundred percent. Isolation and culture of endothelial cells were performed according to published methodology. Periventricular endothelial cells were prepared from CD1 (wild type), saline-treated Gabrb3^fl/fl, saline-treated Gabrb3^ECKO, and NAD^+-treated Gabrb3^ECKO embryos. Endothelial cells were labeled with anti-biotinylated isolectinB4 (1:100, Sigma), anti-GABA (1:400, Sigma), anti-DAXX (1:100, Santa Cruz Biotechnology) and anti-P2X4 (1:100, Abclonal) followed by secondary detection with AlexaFluor conjugates (Invitrogen). DAPI (Invitrogen) was used to label nuclei. Images were taken on an FSX100 microscope (Olympus). 1 million cells were examined for each immunohistochemistry condition.
Endothelial cell proliferation and long-distance cell migration assay: To test for cell proliferation, CD1 periventricular endothelial cells (1 million cells per experiment) were incubated in the presence of the mitotic marker 5-bromo-2′-deoxyuridine (0.05% BrdU) with or without muscimol, for 1 hour to examine the impact on proliferation of these cells and processed for BrdU immunohistochemistry.
In one experiment, periventricular endothelial cells were isolated from E15 wildtype (CD1) forebrain and tested the effect of NAD^+ addition in vitro. Exogenous addition of 100 μM NAD^+ was able to initiate significant endothelial cell proliferation within 2 days of culture and a 35 mm culture dish was confluent within 4-6 days (FIGS. 2A-2D). This was an interesting observation, since untreated periventricular endothelial cells take approximately 12 days to reach confluency in 35mm dishes, in our well-established culture conditions. […] Vital elements of angiogenesis include effective endothelial cell proliferation, migration, sprouting, alignment, tube formation and branching. […] In some areas of the dish, the NAD^+-treated endothelial cells seemed to align and fold into tubular shapes (FIG. 2H), aspects that we have not seen in wild type or untreated periventricular endothelial cells in normal culture conditions.
Effects of NAD^+ addition to periventricular endothelial cells isolated from E15 wildtype (CD1) forebrain was more robust than GABA. (FIGS. 17A-17F) Phase contrast images of periventricular endothelial cells cultured from E15 CD1 forebrain at different time points in untreated conditions (FIGS. 17A-17B) or after plating with NAD^+ addition (100 μM; FIGS. 17C-17D) or GABA addition (5 μM; FIGS. 17E-17F). […] (FIG. 17G) All groups of periventricular endothelial cells were exposed to BrdU (1 mM BrdU per ml medium) for 1 hour followed by Isolectin B4/BrdU double labeling. Quantification of BrdU labeling indices; Data represents mean±SD (n=8, *P<0.05; Student's t-test).
In general terms: Incorporation of labelled thymidine or its analogues reports DNA synthesis.

Assay [2] has the same test system. As to the kind of experiment: Tube formation under normal culture conditions (no Matrigel). The assay is classed as cell-based, mouse. To be noted: absence of Matrigel. As to the method: as §1
In one experiment, periventricular endothelial cells were isolated from E15 wildtype (CD1) forebrain and tested the effect of NAD^+ addition in vitro. […]

Assay [3] concerns Gabrb3^ECKO endothelial cells. As to the kind of experiment: qRT-PCR of periventricular endothelial cells after prenatal treatment. The assay is classed as in vivo, mouse. The protocol:
as §1
Quantitative real-time PCR: RT was performed by using iScript Reverse Transcription Supermix kit (Bio-Rad). PCR reactions were run on a CFX96 Touch Real Time PCR (Bio-Rad) with SsoAdvanced™ Universal SYBR® Green Supermix (Bio-Rad). Primers for qPCR (Daxx, P2x4, P2x7, P2y13, Tek, vwf, F2r, Sirt2, Nos1, Nrp1, Pax6, Gad1, Gad2, Grin2a, Trpm2, Trpc4 and Trpv6) were obtained from Thermo Fisher Scientific. The housekeeping gene Gapdh was used as a reference. The relative gene expression and subsequent fold changes among different samples were determined according to published methodology.
To gain mechanistic insights into NAD^+ action on endothelial cells, periventricular endothelial cells were isolated from saline-treated Gabrb3^fl/fl, saline-treated Gabrb3^ECKO, and NAD^+-treated Gabrb3^ECKO groups at the end of the treatment paradigm. […] GABA is synthesized from glutamate by Gad genes. […] The qRT-PCR gene expression levels followed a similar trend with that of the levels in the microarray data, reinforcing that the whole-tissue microarray was capable of highlighting some endothelial cells specific gene changes (FIGS. 10A-10I). […] Taken together, our results implicate NAD^+ as a critical modulator of angiogenesis in the embryonic forebrain.
On the technique in general: Real-time PCR tracks product formation cycle by cycle.

Where [4] appears, read: periventricular endothelial cells after prenatal treatment.

With `NC(=O)c1ccc[n+]([C@@H]2O[C@H](COP(=O)([O-])OP(=O)(O)OC[C@H]3O[C@@H](n4cnc5c(N)ncnc54)[C@H](O)[C@@H]3O)[C@@H](O)[C@H]2O)c1` [NAD^+], the “endothelial cell proliferation (phase contrast)” value in assay [1] (100 μM) was “Robust proliferation”. Also, in assay [1] (100 μM NAD^+, days of culture), the “time to initiate significant endothelial cell proliferation” value is reported as at most 2 days. Further, in assay [1] (100 μM NAD^+, untreated cells approximately 12 days), the “time until 35 mm culture dish was confluent” value is 4 to 6 days. For the same compound, the “endothelial cell BrdU labeling index” value in assay [1] (NAD^+ addition vs untreated) was “significantly increased”. Moreover, the tube formation result in assay [2] is given as “started showing tube formation properties under normal culture conditions”. For the same compound, the “P2X7 and P2Y13 mRNA expression” value in assay [3] (after NAD^+ treatment) is “rescue of P2X7 and P2Y13 mRNA expression”. Besides, in assay [3] (setting [4]), the “Gad1 and Gad2 expression by qRT-PCR” value was “concurrently rescued”; the “calcium signaling genes (Grin2a, Trpm2, Trpc4, Trpv6) by qRT-PCR” value was “rescue of several calcium signaling genes”; the “expression of angiogenesis regulators (Tek, vWF, F2r, Sirt2, Nos1, Pax6) by qRT-PCR” value is reported as “restored the expression of several critical regulators of angiogenesis”.
